Reference: EPA's ToxValDB 9.5 (doi:10.2903/j.efsa.2010.1389)
Values after ≈ are worked out from the molar mass of the structure shown.

How the values were obtained:
Apis mellifera = details: acute; duration: 48 hours; dermal; mortality
Bibionidae = details: chronic/long-term; duration: 28 days; development
Daphnia magna = details: chronic/long-term; duration: 21 days; reproduction
Hypoaspis aculeifer = details: chronic/long-term; duration: 14 days
Lepomis macrochirus = details: acute; duration: 96 hours; mortality
Typhlodromus pyri = assay: LR50; higher = less toxic; details: acute; duration: 7 days; mortality

CC(C)Oc1cc(-n2nc(C(C)(C)C)oc2=O)c(Cl)cc1Cl [Oxadiazon]
NOEC (Anas platyrhynchos; reproductive): 106 mg/kg-day | LC50 (Anas platyrhynchos; short-term, oral, feed, mortality): > 1140 mg/kg-day | LD50 (Apis mellifera): > 100 µg/piece | NOEC (Bibionidae): 5 mg/L | LC50 (Colinus virginianus; acute, oral, diet, mortality): > 730 mg/kg-day | LD50 (Colinus virginianus; acute, oral, mortality): > 2150 mg/kg-day | NOEC (Colinus virginianus; reproduction developmental): 90.8 mg/kg-day | NOEC (Daphnia magna): 0.03 mg/L | NOEC (Hypoaspis aculeifer): 339 mg/kg | LC50 (Lepomis macrochirus): 1.2 µg/mL (≈ 3.48 µM) | LC50 (Oncorhynchus mykiss; acute, duration: 96 hours, mortality): 1.2 µg/mL (≈ 3.48 µM) | NOEC (Oncorhynchus mykiss; chronic/long-term, duration: 60 days, other): 0.00088 mg/L | LD50 (Rattus norvegicus; acute, oral, mortality): > 5000 mg/kg-day | NOAEL (Rattus norvegicus; chronic): 15 mg/kg-day | NOAEL (Rattus norvegicus; chronic, duration: 2 years, organ weight): 0.36 mg/kg-day | NOAEL (Rattus norvegicus; developmental, development): 12 mg/kg-day | NOAEL (Rattus norvegicus; reproduction developmental, reproduction): 5 mg/kg-day | LC50 (Tagia sp.; acute, duration: 14 days, mortality): > 1000 mg/kg | NOEC (Tagia sp.; chronic/long-term, duration: 8 weeks, reproduction): 133 mg/kg | LR50 (Typhlodromus pyri): 150 g/ha
